Read-outs that look alike come from different tables or passages of the source. Where a SMILES comes first, the peptide text is derived from it. Bridges are numbered along the chain shown (N, C = ends).
What was measured:
Assay type in all cases: cell-based
[1] = target: T1, Nav1.7 (Homo sapiens, UniProt Q15858); experiment: Use/frequency-dependent inhibition of Nav1.7; settings: n = 4-5; for IC50: read-out: IC50 Nav1.7, repetitive pulses
T1 construct: expressed in transfected cells; host or cells: HEK293T
Excerpt: (§1) The cDNA genes encoding rat Nav1.4 and human Nav1.7 were subcloned into vectors pRGB4 and pcDNA3.1-mod, respectively. Mutations of rNav1.4 (N655D, Q657E, and N655D/Q657E) and hNav1.7 (D816N, E818Q, and D816N/E818Q) were constructed using the Gene Tailor Site-Directed Mutagenesis system (Invitrogen, Carlsbad, CA, United States), according to the manufacturer’s instructions. Nav1.2–Nav1.7 and mutant plasmids together with eGFP were transiently transfected into HEK293T cells while Nav1.8 together with eGFP was transiently transfected into ND7/23 cells by Lipofectamine 2000 (Invitrogen, Carlsbad, CA, United States). Additionally, plasmids β1- and β2-eGFP encoding the human β1 and β2 subunits, respectively, were co-transfected with those encoding WT Nav1.7 and Nav1.7 mutations in HEK293T cells. Human Nav1.9 was transfected into ND7/23 cells according to a previous report ([Zhou et al., 2017]). […] Cells with green fluorescent protein fluorescence were selected for whole-cell patch-clamp recordings 24 h after transfection.
(§2) Whole-cell patch-clamp recordings were performed at room temperature (20–25°C) using an EPC 10 USB Patch Clamp Amplifier (HEKA, Elektronik, Lambrecht, Germany). […] Data was analyzed by software Igo Pro 6.10A (WaveMetrics, Lake Oswego, OR, United States), SigmaPlot 10.0 (Sigma-Aldrich, St. Louis, MO, United States), OriginPro 8 (OriginLab Corp., Northampton, MA, United States), and GraphPad Prism 5 (GraphPad Software, San Diego, CA, United States). […]
Fast inactivation time constants were calculated by fitting current decay traces with a single exponential function using the I–V protocol described above. Recovery from fast-inactivation (repriming) was assessed by using a two-pulse protocol consisting of a depolarizing pulse to −10 mV for 50 ms to inactivate channels, followed by a step to −100 mV of variable duration (1 to 1024 ms) to promote recovery, and 50 ms test pulse to −10 mV to assess availability of channels. […]

[2] = tested on: Human Nav1.9; experiment: Whole-cell patch-clamp, Nav1.9 in ND7/23 cells; settings: up to 10 μM, 50 ms to −40 mV from −120 mV, in presence of 1 μM TTX
[3] = target: T1, Nav1.7; experiment: I–V relationships and voltage-dependent activation of Nav1.7; settings: 0.2 μM, n = 10
Excerpt: as §1, with “cells.” for “cells. Human Nav1.9 was transfected into ND7/23 cells according to a previous report ([Zhou et al., 2017]).”
as §2

[4] = target: T1, Nav1.7; experiment: Recovery from fast inactivation (repriming) of Nav1.7; settings: 0.2 μM; at –100 mV; control 6.42 ± 0.85 ms; P < 0.05 paired t-test; mean ± SEM, n = 6–11 cells
Excerpt: as §1, with “States).” for “States). Additionally, plasmids β1- and β2-eGFP encoding the human β1 and β2 subunits, respectively, were co-transfected with those encoding WT Nav1.7 and Nav1.7 mutations in HEK293T cells. Human Nav1.9 was transfected into ND7/23 cells according to a previous report ([Zhou et al., 2017]).”
as §2
Fast inactivation time constants were calculated by fitting current decay traces with a single exponential function using the I–V protocol described above. […]

T1 sequence (O60939 30-215): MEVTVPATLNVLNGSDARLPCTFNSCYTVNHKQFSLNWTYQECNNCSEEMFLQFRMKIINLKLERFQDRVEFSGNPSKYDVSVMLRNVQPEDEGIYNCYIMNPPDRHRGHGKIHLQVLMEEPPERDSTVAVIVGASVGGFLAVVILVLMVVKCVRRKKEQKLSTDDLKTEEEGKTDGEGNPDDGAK
T1 sequence (Q15858 other isoform, or with tags, fused parts or gaps): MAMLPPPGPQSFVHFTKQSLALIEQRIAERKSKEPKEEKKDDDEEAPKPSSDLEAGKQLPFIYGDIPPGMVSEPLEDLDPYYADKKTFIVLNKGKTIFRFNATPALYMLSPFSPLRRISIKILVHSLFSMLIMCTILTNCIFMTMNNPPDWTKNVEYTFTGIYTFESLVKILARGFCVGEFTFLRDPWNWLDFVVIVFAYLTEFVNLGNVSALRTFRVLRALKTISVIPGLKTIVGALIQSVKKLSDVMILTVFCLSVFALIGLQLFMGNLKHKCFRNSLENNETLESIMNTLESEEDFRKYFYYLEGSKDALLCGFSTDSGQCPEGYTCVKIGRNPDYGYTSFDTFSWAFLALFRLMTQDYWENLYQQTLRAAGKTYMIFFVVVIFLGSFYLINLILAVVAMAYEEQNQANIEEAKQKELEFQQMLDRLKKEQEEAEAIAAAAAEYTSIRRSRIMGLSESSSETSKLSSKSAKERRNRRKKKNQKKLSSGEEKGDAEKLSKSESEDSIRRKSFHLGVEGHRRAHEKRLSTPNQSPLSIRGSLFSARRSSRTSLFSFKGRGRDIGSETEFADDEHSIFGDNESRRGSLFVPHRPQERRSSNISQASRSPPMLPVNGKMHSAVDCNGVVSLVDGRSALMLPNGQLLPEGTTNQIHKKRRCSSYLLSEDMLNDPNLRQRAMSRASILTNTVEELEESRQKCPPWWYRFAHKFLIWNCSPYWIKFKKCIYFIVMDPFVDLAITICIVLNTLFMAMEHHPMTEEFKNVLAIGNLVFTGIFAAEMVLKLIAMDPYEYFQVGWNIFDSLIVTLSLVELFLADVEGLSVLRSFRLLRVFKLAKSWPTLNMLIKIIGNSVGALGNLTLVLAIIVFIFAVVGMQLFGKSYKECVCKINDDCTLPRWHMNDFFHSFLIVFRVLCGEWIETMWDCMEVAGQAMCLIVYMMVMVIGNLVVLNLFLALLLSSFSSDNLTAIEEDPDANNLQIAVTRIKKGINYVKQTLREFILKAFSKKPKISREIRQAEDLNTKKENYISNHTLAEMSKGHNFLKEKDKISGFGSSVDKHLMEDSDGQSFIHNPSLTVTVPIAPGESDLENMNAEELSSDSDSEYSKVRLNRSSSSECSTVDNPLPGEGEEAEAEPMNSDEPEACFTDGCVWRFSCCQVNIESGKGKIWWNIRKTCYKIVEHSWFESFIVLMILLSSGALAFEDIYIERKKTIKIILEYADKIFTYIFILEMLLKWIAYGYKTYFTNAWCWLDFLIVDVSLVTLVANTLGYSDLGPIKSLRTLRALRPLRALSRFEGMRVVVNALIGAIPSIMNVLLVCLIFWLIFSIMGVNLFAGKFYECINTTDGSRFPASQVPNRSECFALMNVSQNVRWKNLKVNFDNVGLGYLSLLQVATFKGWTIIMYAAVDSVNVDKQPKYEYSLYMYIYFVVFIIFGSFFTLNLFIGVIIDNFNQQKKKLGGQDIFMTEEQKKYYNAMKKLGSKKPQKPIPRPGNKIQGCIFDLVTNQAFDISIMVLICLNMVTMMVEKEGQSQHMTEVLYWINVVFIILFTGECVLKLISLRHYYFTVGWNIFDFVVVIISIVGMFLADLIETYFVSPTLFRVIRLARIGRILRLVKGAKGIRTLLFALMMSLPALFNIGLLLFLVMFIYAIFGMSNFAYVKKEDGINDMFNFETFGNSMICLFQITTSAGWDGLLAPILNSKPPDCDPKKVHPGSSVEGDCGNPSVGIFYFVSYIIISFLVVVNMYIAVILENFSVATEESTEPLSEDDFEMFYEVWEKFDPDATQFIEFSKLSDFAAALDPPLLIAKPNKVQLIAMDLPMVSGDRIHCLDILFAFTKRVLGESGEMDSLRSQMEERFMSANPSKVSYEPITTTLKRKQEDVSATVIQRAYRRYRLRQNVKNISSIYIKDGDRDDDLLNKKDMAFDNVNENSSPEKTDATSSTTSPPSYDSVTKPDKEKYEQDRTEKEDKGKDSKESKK
T1 sequence (Q07699 19-218, further chain): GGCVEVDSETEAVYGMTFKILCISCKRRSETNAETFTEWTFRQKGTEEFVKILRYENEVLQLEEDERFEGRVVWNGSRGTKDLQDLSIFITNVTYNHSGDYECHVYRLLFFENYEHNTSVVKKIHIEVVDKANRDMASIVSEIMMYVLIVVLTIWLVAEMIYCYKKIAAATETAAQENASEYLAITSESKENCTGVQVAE

CC(C)C[C@H](NC(=O)[C@H](CC(=O)O)NC(=O)[C@H](Cc1ccc(O)cc1)NC(=O)[C@H](CCCCN)NC(=O)[C@@H]1CSSC[C@@H]2NC(=O)[C@H](CCCCN)NC(=O)[C@H](CC(=O)O)NC(=O)[C@H](CC(N)=O)NC(=O)[C@H](CO)NC(=O)[C@@H]3CCCN3C(=O)[C@H](CC(N)=O)NC(=O)[C@@H]3CSSC[C@H](NC(=O)[C@H](C(C)C)NC(=O)[C@H](CC(C)C)NC(=O)[C@H](CO)NC(=O)[C@H](CO)NC(=O)[C@H](CO)NC(=O)[C@H](CCCCN)NC(=O)[C@H](CSSC[C@H](NC(=O)[C@H](C)N)C(=O)N[C@@H](CC(C)C)C(=O)NCC(=O)N[C@@H](Cc4ccccc4)C(=O)NCC(=O)N[C@@H](CCC(=O)O)C(=O)N[C@@H](CCCCN)C(=O)N3)NC2=O)C(=O)N[C@@H](CO)C(=O)N[C@@H](CCC(N)=O)C(=O)N[C@@H](CCCCN)C(=O)N[C@@H](Cc2c[nH]cn2)C(=O)N[C@@H](CCCCN)C(=O)N[C@@H](Cc2c[nH]c3ccccc23)C(=O)N1)C(=O)O [Ca2a] (H-ACLGFGEKCNPSNDKCCKSSSLVCSQKHKWCKYDL-OH; disulfide 2-17, 9-24, 16-31 (inferred); N-terminus and C-terminus assumed)
use/frequency dependence of inhibition for Nav1.7 ([1]; 1, 5 and 10 Hz): did not show obvious use/frequency dependence
IC50 ([1]; 5 Hz): 244 ± 30.7 nM
IC50 ([1]; 10 Hz): 185 ± 23.8 nM
inhibitory effect on Nav1.9 currents [2]: no inhibitory effects
half-activation voltage of Nav1.7 ([3]; control −20.1 ± 1.1 mV, mean ± SEM): −18.9 ± 1.3 mV
threshold of initial activation voltage, active voltage of peak current, reversal potential of Nav1.7 (I–V) [3]: did not change
τ of recovery from fast inactivation at Nav1.7 [4]: 8.93 ± 1.62 ms

— article PMC6198068, “Discovery of a Novel Nav1.7 Inhibitor From Cyriopagopus albostriatus Venom With Potent Analgesic Efficacy” (Frontiers in Pharmacology, 2018)
